Test results as given in article PMC6364417, “Kinase inhibitor library screening identifies synergistic drug combinations effective in sensitive and resistant melanoma cells” (Journal of Experimental & Clinical Cancer Research : CR, 2019).

Tests used:
Experiment in all cases: Kinase inhibitor library screening, PrestoBlue cell viability, 1 or 10 μM, 72 h
501Mel cells (parental) = conditions: 72 h; for Cell viability in kinase inhibitor library screening, 501Mel Parental, 1μΜ / Cell viability in kinase inhibitor library screening, 501Mel Parental, 10μΜ: in %; for Cell viability in kinase inhibitor library screening, 501Mel Parental, 1μΜ / Cell viability in kinase inhibitor library screening, 501Mel Parental, 10μΜ / cell viability (kinase inhibitor library screening): 501Mel Parental
Protocol: (§1) After 72 h of treatment, cell viability was assessed using the PrestoBlue Cell Viability Reagent (ThermoFisher Scientific). Measurements were performed with the CLARIOstar Monochromator microplate reader (BMG Labtech).
(§2) Kinase inhibitor library screening. […] Each cell line was treated in its sensitive form (parental), and also as 2 resistant derivatives, which were made resistant to either Vemurafenib (XP) or Dabrafenib (GP). Drugs were added at 2 different concentrations, 1 and 10 μM, for 72 h and cell viability was assessed using the PrestoBlue Cell Viability assay. Results are depicted as % viability compared to untreated cells. Each cell line was analyzed at least in duplicate. […] (XLSX 95 kb)

[1] = tested on: 501Mel-GP cells (Dabrafenib-resistant); conditions: 72 h; for Cell viability in kinase inhibitor library screening, 501Mel GP, 1μΜ / Cell viability in kinase inhibitor library screening, 501Mel GP, 10μΜ: in %; for Cell viability in kinase inhibitor library screening, 501Mel GP, 1μΜ / Cell viability in kinase inhibitor library screening, 501Mel GP, 10μΜ / cell viability (kinase inhibitor library screening): 501Mel GP
Protocol: as §1, §2

[2] = tested on: 501Mel-XP cells (Vemurafenib-resistant); conditions: 72 h; for Cell viability in kinase inhibitor library screening, 501Mel XP, 1μΜ / Cell viability in kinase inhibitor library screening, 501Mel XP, 10μΜ: in %; for Cell viability in kinase inhibitor library screening, 501Mel XP, 1μΜ / Cell viability in kinase inhibitor library screening, 501Mel XP, 10μΜ / cell viability (kinase inhibitor library screening): 501Mel XP
Protocol: as §1, §2

A375 cells (parental) = conditions: for Cell viability in kinase inhibitor library screening, A375 Parental, 10μΜ / Cell viability in kinase inhibitor library screening, A375 Parental, 1μΜ / cell viability (kinase inhibitor library screening): 72 h, A375 Parental
Protocol: as §1, §2

[3] = tested on: A375-GP cells (Dabrafenib-resistant); conditions: for Cell viability in kinase inhibitor library screening, A375 GP, 1μΜ / Cell viability in kinase inhibitor library screening, A375 GP, 10μΜ / cell viability (kinase inhibitor library screening): 72 h, A375 GP
Protocol: as §1, §2

[4] = tested on: A375-XP cells (Vemurafenib-resistant); conditions: for Cell viability in kinase inhibitor library screening, A375 XP, 1μΜ / Cell viability in kinase inhibitor library screening, A375 XP, 10μΜ / cell viability (kinase inhibitor library screening): 72 h, A375 XP
Protocol: as §1, §2

IGR37 cells (parental) = tested on: IGR37 cells (parental)
Protocol: as §1, §2

[5] = tested on: IGR37-GP cells (Dabrafenib-resistant); conditions: for Cell viability in kinase inhibitor library screening, IGR37 GP, 10μΜ / Cell viability in kinase inhibitor library screening, IGR37 GP, 1μΜ / cell viability (kinase inhibitor library screening): 72 h, IGR37 GP; for Cell viability in kinase inhibitor library screening, IGR37 GP, 1μΜ: in %
Protocol: as §1, §2

[6] = tested on: IGR37-XP cells (Vemurafenib-resistant); conditions: for Cell viability in kinase inhibitor library screening, IGR37 XP, 10μΜ / Cell viability in kinase inhibitor library screening, IGR37 XP, 1μΜ / cell viability (kinase inhibitor library screening): 72 h, IGR37 XP; for Cell viability in kinase inhibitor library screening, IGR37 XP, 1μΜ: in %
Protocol: as §1, §2

[7] = IGR37 Parental, 10μΜ, 72 h, in %

SMILES: CNC(=O)c1cccc(-c2ccc3c(N4CCOC[C@@H]4C)nc(N4CCOC[C@@H]4C)nc3n2)c1 [AZD2014]
- Cell viability in kinase inhibitor library screening, 501Mel Parental, 1μΜ (501Mel cells (parental); 1μΜ): 39.4
- Cell viability in kinase inhibitor library screening, 501Mel Parental, 10μΜ (501Mel cells (parental); 10μΜ): 8.5
- Cell viability in kinase inhibitor library screening, 501Mel GP, 1μΜ ([1]; 1μΜ): 28.3
- Cell viability in kinase inhibitor library screening, 501Mel GP, 10μΜ ([1]; 10μΜ): 9.6
- Cell viability in kinase inhibitor library screening, 501Mel XP, 1μΜ ([2]; 1μΜ): 21.8
- Cell viability in kinase inhibitor library screening, 501Mel XP, 10μΜ ([2]; 10μΜ): 3.5
- Cell viability in kinase inhibitor library screening, A375 Parental, 10μΜ (A375 cells (parental); 10μΜ): 21.1
- Cell viability in kinase inhibitor library screening, A375 Parental, 1μΜ (A375 cells (parental); 1μΜ): 34.9
- Cell viability in kinase inhibitor library screening, A375 GP, 1μΜ ([3]; 1μΜ): 33.7
- Cell viability in kinase inhibitor library screening, A375 GP, 10μΜ ([3]; 10μΜ): 19.6
- Cell viability in kinase inhibitor library screening, A375 XP, 1μΜ ([4]; 1μΜ): 29.1
- Cell viability in kinase inhibitor library screening, A375 XP, 10μΜ ([4]; 10μΜ): 19.4
- Cell viability in kinase inhibitor library screening, IGR37 Parental, 10μΜ (IGR37 cells (parental); [7]): 12.3
- Cell viability in kinase inhibitor library screening, IGR37 GP, 10μΜ ([5]; 10μΜ): 28.2%
- Cell viability in kinase inhibitor library screening, IGR37 GP, 1μΜ ([5]; 1μΜ): 63.5
- Cell viability in kinase inhibitor library screening, IGR37 XP, 10μΜ ([6]; 10μΜ): 9.4%
- Cell viability in kinase inhibitor library screening, IGR37 XP, 1μΜ ([6]; 1μΜ): 49.7

SMILES: Cc1ncc(-c2ccnc(Nc3ccc(S(C)(=O)=O)cc3)n2)n1C(C)C [AZD5438]
- cell viability (kinase inhibitor library screening) (501Mel cells (parental); 1μΜ): 102.8%
- cell viability (kinase inhibitor library screening) (501Mel cells (parental); 10μΜ): 103.6%
- cell viability (kinase inhibitor library screening) ([1]; 1μΜ): 106.0%
- cell viability (kinase inhibitor library screening) ([1]; 10μΜ): 93.9%
- cell viability (kinase inhibitor library screening) ([2]; 1μΜ): 99.0%
- cell viability (kinase inhibitor library screening) ([2]; 10μΜ): 80.3%
- cell viability (kinase inhibitor library screening) (A375 cells (parental); 10μΜ): 103.7%
- cell viability (kinase inhibitor library screening) (A375 cells (parental); 1μΜ): 106.4%
- cell viability (kinase inhibitor library screening) ([3]; 1μΜ): 99.9%
- cell viability (kinase inhibitor library screening) ([3]; 10μΜ): 102.9%
- cell viability (kinase inhibitor library screening) ([4]; 1μΜ): 105.8%
- cell viability (kinase inhibitor library screening) ([4]; 10μΜ): 110.3%
- cell viability (kinase inhibitor library screening) (IGR37 cells (parental); IGR37 Parental, 1μΜ, 72 h): 103.3%
- cell viability (kinase inhibitor library screening) (IGR37 cells (parental); IGR37 Parental, 10μΜ, 72 h): 110.8%
- cell viability (kinase inhibitor library screening) ([5]; 1μΜ): 99.3%
- cell viability (kinase inhibitor library screening) ([5]; 10μΜ): 97.8%
- cell viability (kinase inhibitor library screening) ([6]; 1μΜ): 106.4%
- cell viability (kinase inhibitor library screening) ([6]; 10μΜ): 82.4%

SMILES: Cn1cnc2c(F)c(Nc3ccc(Br)cc3Cl)c(C(=O)NOCCO)cc21 [AZD6244 (Selumetinib)]
- viability at 1 µM (501Mel cells (parental); Homo sapiens, read-out: cell viability, 501Mel Parental, 1μΜ): 61.6%
- viability at 10 µM (501Mel cells (parental); Homo sapiens, read-out: cell viability, 501Mel Parental, 10μΜ): 60.6%
- viability at 1 µM ([1]; Homo sapiens, read-out: cell viability, 501Mel GP, 1μΜ): 96.9%
- viability at 10 µM ([1]; Homo sapiens, read-out: cell viability, 501Mel GP, 10μΜ): 73.6%
- viability at 1 µM ([2]; Homo sapiens, read-out: cell viability, 501Mel XP, 1μΜ): 81.2%
- viability at 10 µM ([2]; Homo sapiens, read-out: cell viability, 501Mel XP, 10μΜ): 58.1%
- viability at 1 µM (A375 cells (parental); Homo sapiens, A-375, 72 h, read-out: cell viability, A375 Parental, 1μΜ): 21.3%
- viability at 10 µM (A375 cells (parental); Homo sapiens, A-375, 72 h, read-out: cell viability, A375 Parental, 10μΜ): 18.6%
- viability at 1 µM ([3]; Homo sapiens, A-375, 72 h, read-out: cell viability, A375 GP, 1μΜ): 29.4%
- viability at 10 µM ([3]; Homo sapiens, A-375, 72 h, read-out: cell viability, A375 GP, 10μΜ): 17.8%
- viability at 1 µM ([4]; Homo sapiens, A-375, 72 h, read-out: cell viability, A375 XP, 1μΜ): 42.3%
- viability at 10 µM ([4]; Homo sapiens, A-375, 72 h, read-out: cell viability, A375 XP, 10μΜ): 15%
- viability at 1 µM (IGR37 cells (parental); Homo sapiens, IGR-37, 72 h, read-out: cell viability, IGR37 Parental, 1μΜ): 40.2%
- viability at 10 µM (IGR37 cells (parental); Homo sapiens, IGR-37, 72 h, read-out: cell viability, IGR37 Parental, 10μΜ): 36.6%
- viability at 1 µM ([5]; Homo sapiens, IGR-37, 72 h, read-out: cell viability, IGR37 GP, 1μΜ): 92%
- viability at 10 µM ([5]; Homo sapiens, IGR-37, 72 h, read-out: cell viability, IGR37 GP, 10μΜ): 62.7%
- viability at 1 µM ([6]; Homo sapiens, IGR-37, 72 h, read-out: cell viability, IGR37 XP, 1μΜ): 83.3%
- viability at 10 µM ([6]; Homo sapiens, IGR-37, 72 h, read-out: cell viability, IGR37 XP, 10μΜ): 42.2%

SMILES: COc1ccc(-c2ccc3c(N4CCOC[C@@H]4C)nc(N4CCOC[C@@H]4C)nc3n2)cc1CO [AZD8055]
- Cell viability in kinase inhibitor library screening, 501Mel Parental, 1μΜ (501Mel cells (parental); 1μΜ): 17.3
- Cell viability in kinase inhibitor library screening, 501Mel Parental, 10μΜ (501Mel cells (parental); 10μΜ): 8.1
- Cell viability in kinase inhibitor library screening, 501Mel GP, 1μΜ ([1]; 1μΜ): 22.1
- Cell viability in kinase inhibitor library screening, 501Mel GP, 10μΜ ([1]; 10μΜ): 11.9
- Cell viability in kinase inhibitor library screening, 501Mel XP, 1μΜ ([2]; 1μΜ): 13.9
- Cell viability in kinase inhibitor library screening, 501Mel XP, 10μΜ ([2]; 10μΜ): 4.6
- Cell viability in kinase inhibitor library screening, A375 Parental, 10μΜ (A375 cells (parental); 10μΜ): 19.2
- Cell viability in kinase inhibitor library screening, A375 Parental, 1μΜ (A375 cells (parental); 1μΜ): 23.1
- Cell viability in kinase inhibitor library screening, A375 GP, 1μΜ ([3]; 1μΜ): 25.5
- Cell viability in kinase inhibitor library screening, A375 GP, 10μΜ ([3]; 10μΜ): 16.6
- Cell viability in kinase inhibitor library screening, A375 XP, 1μΜ ([4]; 1μΜ): 21.6
- Cell viability in kinase inhibitor library screening, A375 XP, 10μΜ ([4]; 10μΜ): 17.3
- Cell viability in kinase inhibitor library screening, IGR37 Parental, 1μΜ (IGR37 cells (parental); IGR37 Parental, 1μΜ, 72 h, in %): 29.8
- Cell viability in kinase inhibitor library screening, IGR37 Parental, 10μΜ (IGR37 cells (parental); [7]): 25.2
- Cell viability in kinase inhibitor library screening, IGR37 GP, 10μΜ ([5]; 10μΜ): 29.5%
- Cell viability in kinase inhibitor library screening, IGR37 GP, 1μΜ ([5]; 1μΜ): 45.1
- Cell viability in kinase inhibitor library screening, IGR37 XP, 10μΜ ([6]; 10μΜ): 12.5%
- Cell viability in kinase inhibitor library screening, IGR37 XP, 1μΜ ([6]; 1μΜ): 34.7
